# According to US20230114728A1 (Venatorx Pharmaceuticals, Inc., priority 2019, published 2023):
# Tests used:
# [1] = target: T1, E. coli K12 PBP3 (Escherichia coli, UniProt P0AD68); assay: biochemical; format: binding
# T1 construct: made in house
# Summary of the method: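 A. baumannii PBP2 (2.5 μM) and PBP3 (0.2 μM) were run in 25 mM Tris pH 8.0 buffer with Tween 20; E. coli PBP3 (1.5 μM) and N. gonorrhoeae PBP2 ([…]) in 50 mM Hepes pH 8.0 buffer.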
# [2] = tested on: N. gonorrhoeae ATCC 49226; assay: Liquid broth MIC in Fastidious broth; format: cell-based; conditions: Neisseria gonorrhoeae, ATCC49226; N. gonorrhoeae strain ATCC 49226; Fastidious broth; read-out: Minimum Inhibitory Concentration, N. gonorrhoeae ATCC 49226
# Summary of the method: (§1)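 Colonies were swabbed from chocolate agar after 24 h growth and standardised by optical density at 600 nm. Compounds were serially diluted twofold in Fastidious broth, and bacteria added to give 5×10^5 CFU/mL. After about 24 h at 36 °C in 5% CO2, the lowest concentration allowing under 10% growth was taken as MIC.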
# [3] = tested on: N. gonorrhoeae FA1090; assay: Liquid broth MIC in Fastidious broth; format: cell-based; conditions: Neisseria gonorrhoeae; N. gonorrhoeae strain FA1090; Fastidious broth; read-out: Minimum Inhibitory Concentration, N. gonorrhoeae FA1090
# Summary of the method: as §1
# [4] = tested on: N. gonorrhoeae H041; assay: Liquid broth MIC in Fastidious broth; format: cell-based; conditions: Neisseria gonorrhoeae, H041, read-out: Minimum Inhibitory Concentration, N. gonorrhoeae H041
# Summary of the method: (§2)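 Mosaic-PBP2 strains grown 24 h on chocolate agar (36 °C, 5% CO2), then direct-suspended in saline and OD600-adjusted. Twofold compound dilutions in Fastidious broth inoculated at 5×10^5 CFU/mL and incubated ~24 h at 36 °C, 5% CO2. MIC read visually as lowest concentration with <10% growth versus full-growth wells.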
# [5] = tested on: N. gonorrhoeae WHO G; assay: Liquid broth MIC in Fastidious broth; format: cell-based; conditions: Neisseria gonorrhoeae; N. gonorrhoeae strain WHO G; Fastidious broth; read-out: Minimum Inhibitory Concentration, N. gonorrhoeae WHO G
# Summary of the method: as §1
# [6] = tested on: N. gonorrhoeae WHO K; assay: Liquid broth MIC in Fastidious broth; format: cell-based; conditions: Neisseria gonorrhoeae, read-out: Minimum Inhibitory Concentration, N. gonorrhoeae WHO K
# Summary of the method: as §2
# [7] = tested on: N. gonorrhoeae WHO L; assay: Liquid broth MIC in Fastidious broth; format: cell-based; conditions: Neisseria gonorrhoeae; N. gonorrhoeae strain WHO L; Fastidious broth; read-out: Minimum Inhibitory Concentration, N. gonorrhoeae WHO L
# Summary of the method: as §1
# [8] = tested on: N. gonorrhoeae WHO Q; assay: Liquid broth MIC in Fastidious broth; format: cell-based; conditions: Neisseria gonorrhoeae, read-out: Minimum Inhibitory Concentration, N. gonorrhoeae WHO Q
# Summary of the method: as §2
# [9] = tested on: N. gonorrhoeae WHO Z; assay: Liquid broth MIC in Fastidious broth; format: cell-based; conditions: Neisseria gonorrhoeae, read-out: Minimum Inhibitory Concentration, N. gonorrhoeae WHO Z
# Summary of the method: as §2
# T1 sequence (P0AD68 1-577): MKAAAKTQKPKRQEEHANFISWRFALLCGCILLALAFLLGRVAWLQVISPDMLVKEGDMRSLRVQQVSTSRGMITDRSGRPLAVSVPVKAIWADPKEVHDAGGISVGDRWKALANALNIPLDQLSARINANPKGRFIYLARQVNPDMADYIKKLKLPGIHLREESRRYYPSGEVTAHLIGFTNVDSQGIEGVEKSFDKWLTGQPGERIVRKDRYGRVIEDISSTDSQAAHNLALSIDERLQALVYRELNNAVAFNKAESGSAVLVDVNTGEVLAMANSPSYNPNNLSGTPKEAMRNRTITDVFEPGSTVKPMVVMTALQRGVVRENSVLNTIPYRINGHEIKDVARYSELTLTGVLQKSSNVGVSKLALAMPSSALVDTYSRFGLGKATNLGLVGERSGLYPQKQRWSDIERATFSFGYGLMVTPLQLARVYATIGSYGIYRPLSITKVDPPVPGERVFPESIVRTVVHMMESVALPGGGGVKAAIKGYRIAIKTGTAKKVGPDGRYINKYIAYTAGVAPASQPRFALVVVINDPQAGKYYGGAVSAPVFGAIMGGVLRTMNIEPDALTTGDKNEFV
Structure (SMILES),EC50 [1] [µM],MIC [2] [µg/mL],MIC [3] [µg/mL],MIC [4] [µg/mL],MIC [5] [µg/mL],MIC [6] [µg/mL],MIC [7] [µg/mL],MIC [8] [µg/mL],MIC [9] [µg/mL]
"CCN1CCN(C(=O)N[C@@H](C(=O)N[C@H]2Cc3cccc(C(=O)O)c3OB2O)c2ccc(C(=O)O)cc2O)C(=O)C1=O (single isomer, unassigned) [Example 144]",< 30,1 to 2,< 0.125,16 to 32,0.25 to 0.5,16 to 32,4 to 8,4 to 8,4 to 8
"NCCN1CCN(C(=O)N[C@H](C(=O)N[C@H]2Cc3cccc(C(=O)O)c3OB2O)c2ccc(O)c(F)c2F)C(=O)C1=O (single isomer, unassigned) [Example 169]",30 to 500,> 64,4 to 8,> 64,> 64,> 64,> 64,> 64,> 64
"CCN1CCN(C(=O)N[C@@H](C(=O)N[C@H]2Cc3cccc(C(=O)O)c3OB2O)c2ccc(C(=O)O)c(F)c2)C(=O)C1=O (single isomer, unassigned) [Example 146]",< 30,1 to 2,< 0.125,4 to 8,0.25 to 0.5,1 to 2,4 to 8,1 to 2,1 to 2
"CCN1CCN(C(=O)NC(C(=O)N[C@H]2Cc3cccc(C(=O)O)c3OB2O)c2c(F)c(F)c(O)c(F)c2F)C(=O)C1=O (stereo partly drawn) [Example 175, (3R)-3-(2-(4-ethyl-2,3-dioxopiperazine-1-carboxamido)-2-(2,3,5,6-tetrafluoro-4-hydroxyphenyl)acetamido)-2-hydroxy-3,4-dihydro-2H-benzo[e][1,2]oxaborinine-8-carboxylic acid]",< 30,1 to 2,< 0.125,4 to 8,0.25 to 0.5,1 to 2,4 to 8,1 to 2,1 to 2
"CS(=O)(=O)N1CCN(C(=O)N[C@@H](C(=O)N[C@H]2Cc3cccc(C(=O)O)c3OB2O)c2c(F)cc(O)cc2F)C1=O (single isomer, unassigned) [Example 135]",< 30,4 to 8,< 0.125,> 64,1 to 2,> 64,16 to 32,16 to 32,16 to 32
"O=C(O)c1cccc2c1OB(O)[C@@H](NC(=O)[C@H](NC(=O)N1CCN(CCF)C(=O)C1=O)c1c(F)cc(O)cc1F)C2 (single isomer, unassigned) [Example 126]",< 30,4 to 8,< 0.125,16 to 32,1 to 2,16 to 32,16 to 32,4 to 8,4 to 8
"CCN1CCN(C(=O)N[C@H](C(=O)N[C@H]2Cc3cccc(C(=O)O)c3OB2O)c2ccc(C(=O)O)c(F)c2F)C(=O)C1=O (single isomer, unassigned) [Example 139]",< 30,1 to 2,< 0.125,4 to 8,1 to 2,4 to 8,4 to 8,4 to 8,1 to 2
"NC1(CN2CCN(C(=O)N[C@@H](C(=O)N[C@H]3Cc4cccc(C(=O)O)c4OB3O)c3c(F)cc(O)cc3F)C(=O)C2=O)CC1 (single isomer, unassigned) [Example 121]",< 30,16 to 32,1 to 2,> 64,16 to 32,> 64,> 64,> 64,> 64
"CCN1CCN(C(=O)NC(C(=O)N[C@H]2Cc3cccc(C(=O)O)c3OB2O)c2c(F)cc(O)cc2F)C(=O)C1=O (stereo partly drawn) [Example 105, (3R)-3-(2-(2,6-difluoro-4-hydroxyphenyl)-2-(4-ethyl-2,3-dioxopiperazine-1-carboxamido)acetamido)-2-hydroxy-3,4-dihydro-2H-benzo[e][1,2]oxaborinine-8-carboxylic acid]",< 30,4 to 8,< 0.125,16 to 32,0.25 to 0.5,16 to 32,16 to 32,4 to 8,4 to 8
